Source: PubChem BioAssay (NCI)
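Briefly, cells in 96-well plates were exposed to five compound concentrations for 48 h, and endpoints were estimated by linear interpolation. Definition used: TGI = concentration required for complete inhibition of growth.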

Legend:
Test in all cases: DTP human tumour cell line panel, 48 h
OVCAR-4 ovarian = test system: OVCAR-4 ovarian
SK-MEL-5 melanoma = test system: SK-MEL-5 melanoma
NCI-H23 lung = test system: NCI-H23 lung
HOP-18 NSCLC = test system: HOP-18 NSCLC
RXF 393 renal = test system: RXF 393 renal
HT29 colon = test system: HT29 colon
A549 NSCLC = test system: A549 NSCLC
SF-539 CNS = test system: SF-539 CNS
IGROV1 ovarian = test system: IGROV1 ovarian
SK-MEL-28 melanoma = test system: SK-MEL-28 melanoma
KM12 colon = test system: KM12 colon
LXFL 529 NSCLC = test system: LXFL 529 NSCLC
HCC-2998 colon = test system: HCC-2998 colon
NCI-H522 lung = test system: NCI-H522 lung
NCI-H460 lung = test system: NCI-H460 lung
ACHN renal = test system: ACHN renal
SN12C renal = test system: SN12C renal
RXF-631 renal = test system: RXF-631 renal
NCI-H226 lung = test system: NCI-H226 lung
UACC-257 melanoma = test system: UACC-257 melanoma
COLO 205 colon = test system: COLO 205 colon
DMS 114 small cell lung = test system: DMS 114 small cell lung
OVCAR-8 ovarian = test system: OVCAR-8 ovarian
SF-268 CNS = test system: SF-268 CNS
DLD-1 colon = test system: DLD-1 colon
UO-31 renal = test system: UO-31 renal
SK-MEL-2 melanoma = test system: SK-MEL-2 melanoma
CCRF-CEM leukemia = test system: CCRF-CEM leukemia
UACC-62 melanoma = test system: UACC-62 melanoma
SNB-75 CNS = test system: SNB-75 CNS
DMS 273 small cell lung = test system: DMS 273 small cell lung
K-562 leukemia = test system: K-562 leukemia
HCT-116 colon = test system: HCT-116 colon
OVCAR-5 ovarian = test system: OVCAR-5 ovarian
U251 CNS = test system: U251 CNS
OVCAR-3 ovarian = test system: OVCAR-3 ovarian
HOP-92 NSCLC = test system: HOP-92 NSCLC
MOLT-4 leukemia = test system: MOLT-4 leukemia
HL-60(TB) leukemia = test system: HL-60(TB) leukemia
TK-10 renal = test system: TK-10 renal
A498 renal = test system: A498 renal
M14 melanoma = test system: M14 melanoma
SNB-78 CNS = test system: SNB-78 CNS
786-0 renal = test system: 786-0 renal
HOP-62 NSCLC = test system: HOP-62 NSCLC
EKVX NSCLC = test system: EKVX NSCLC
RPMI-8226 leukemia = test system: RPMI-8226 leukemia
SF-295 CNS = test system: SF-295 CNS
SW-620 colon = test system: SW-620 colon
KM20L2 colon = test system: KM20L2 colon
HCT-15 colon = test system: HCT-15 colon
CAKI-1 renal = test system: CAKI-1 renal
SNB-19 CNS = test system: SNB-19 CNS
MALME-3M melanoma = test system: MALME-3M melanoma
SK-OV-3 ovarian = test system: SK-OV-3 ovarian
LOX IMVI melanoma = test system: LOX IMVI melanoma
SR leukemia = test system: SR leukemia
M19-MEL melanoma = test system: M19-MEL melanoma

Measured: TGI

CC(N)C(=O)c1ccc(O)cc1 (configuration not stated)
> 100 µM: OVCAR-4 ovarian | SK-MEL-5 melanoma | NCI-H23 lung | HOP-18 NSCLC | RXF 393 renal | HT29 colon | A549 NSCLC | SF-539 CNS | IGROV1 ovarian | SK-MEL-28 melanoma | KM12 colon | LXFL 529 NSCLC | HCC-2998 colon | NCI-H522 lung | NCI-H460 lung | ACHN renal | SN12C renal | RXF-631 renal | NCI-H226 lung | UACC-257 melanoma | COLO 205 colon | DMS 114 small cell lung | OVCAR-8 ovarian | SF-268 CNS | DLD-1 colon | UO-31 renal | SK-MEL-2 melanoma | CCRF-CEM leukemia | UACC-62 melanoma | SNB-75 CNS | DMS 273 small cell lung | K-562 leukemia | HCT-116 colon | OVCAR-5 ovarian | U251 CNS | OVCAR-3 ovarian | HOP-92 NSCLC | MOLT-4 leukemia | HL-60(TB) leukemia | TK-10 renal | A498 renal | M14 melanoma | SNB-78 CNS | 786-0 renal | HOP-62 NSCLC | EKVX NSCLC | RPMI-8226 leukemia | SF-295 CNS | SW-620 colon | KM20L2 colon | HCT-15 colon | CAKI-1 renal | SNB-19 CNS | MALME-3M melanoma | SK-OV-3 ovarian | LOX IMVI melanoma

c1ccc(-c2nc3sccn3n2)cc1
> 100 µM: NCI-H23 lung | RXF 393 renal | HT29 colon | A549 NSCLC | IGROV1 ovarian | SK-MEL-28 melanoma | KM12 colon | NCI-H522 lung | NCI-H460 lung | ACHN renal | RXF-631 renal | UACC-257 melanoma | DMS 114 small cell lung | OVCAR-8 ovarian | SF-268 CNS | UO-31 renal | CCRF-CEM leukemia | UACC-62 melanoma | DMS 273 small cell lung | K-562 leukemia | HCT-116 colon | OVCAR-5 ovarian | U251 CNS | HOP-92 NSCLC | MOLT-4 leukemia | HL-60(TB) leukemia | TK-10 renal | A498 renal | M14 melanoma | HOP-62 NSCLC | EKVX NSCLC | SR leukemia | SF-295 CNS | SNB-19 CNS | M19-MEL melanoma | SK-OV-3 ovarian
